≈ marks a conversion by molar mass, not a printed value.
What was measured:
[1] = system: C. albicans ATCC 90028; assay: MIC by broth dilution, CA04; assay type: cell-based, Candida albicans; conditions: RPMI 1640 pH 7.0, 48 hours; for MIC50: Candida albicans, ATCC90028, concentration exhibiting more than 50% inhibition vs positive control, read-out: MIC50 obtained by broth dilution method, MIC
Experimental: (§1) The compounds of Formula (1a) and (1b) were tested for antifungal activity against various strains of Candida(CA 01: Candida albicans ATCC 24433, CA 02: C. albicans ATCC 10231, CA 03: C. albicans ATCC 2091, CA 04: C. albicans ATCC 90028, CG 01: C. glabrata ATCC 90030, CK 01: C. Krusei ATCC 6258, CT 01: C. tropicalis ATCC 750). In vitro evaluation of antifungal activity was performed by determining the minimum inhibitory concentration (MIC) following standard broth dilution methods (CLSI: Reference method for broth dilution antifungal susceptibility testing of yeasts; Approved standard, second edition M27-A2, 2002; CLSI: Reference method for broth dilution antifungal susceptibility testing of filamentous fungi; […]. Known anti-fungal agents like Fluconazole and Amphotericin-B were used as standards. End points were determined after 48 hours visually and by using spectrophotometer wherever necessary. The activity parameters are enumerated in Table 10: […]

[2] = system: Candida albicans ATCC 24433; assay: MIC by broth dilution, CA01; assay type: cell-based; conditions: RPMI 1640 pH 7.0, 48 hours; for MIC50: Candida albicans, ATCC24433, concentration exhibiting more than 50% inhibition vs positive control, read-out: MIC50 obtained by broth dilution method, MIC
Experimental: as §1

[3] = system: C. albicans ATCC 2091; assay: MIC by broth dilution, CA03; assay type: cell-based, Candida albicans; conditions: RPMI 1640 pH 7.0, 48 hours; for MIC50: Candida albicans, ATCC2091, concentration exhibiting more than 50% inhibition vs positive control, read-out: MIC50 obtained by broth dilution method, MIC
Experimental: as §1

[4] = system: C. albicans ATCC 10231; assay: MIC by broth dilution, CA02; assay type: cell-based, Candida albicans; conditions: RPMI 1640 pH 7.0, 48 hours; for MIC50: Candida albicans, ATCC10231, concentration exhibiting more than 50% inhibition vs positive control, read-out: MIC50 obtained by broth dilution method, MIC
Experimental: as §1

[5] = system: C. glabrata ATCC 90030; assay: MIC by broth dilution, CG01; assay type: cell-based; conditions: RPMI 1640 pH 7.0, 48 hours; for MIC50: Nakaseomyces glabratus, ATCC90030, concentration exhibiting more than 50% inhibition vs positive control, read-out: MIC50 obtained by broth dilution method, MIC
Experimental: as §1

[6] = system: C. tropicalis ATCC 750; assay: MIC by broth dilution, CT01; assay type: cell-based; conditions: RPMI 1640 pH 7.0, 48 hours; for MIC50: Candida tropicalis, ATCC750, concentration exhibiting more than 50% inhibition vs positive control, read-out: MIC50 obtained by broth dilution method, MIC
Experimental: as §1

[7] = system: C. Krusei ATCC 6258; assay: MIC by broth dilution, CK01; assay type: cell-based; conditions: RPMI 1640 pH 7.0, 48 hours; for MIC50: Pichia kudriavzevii, ATCC6258, concentration exhibiting more than 50% inhibition vs positive control, read-out: MIC50 obtained by broth dilution method, MIC
Experimental: as §1

[8] = concentration exhibiting complete inhibition

MIC in μg/ml (Amphotericin B) [1, 8] | MIC in μg/ml (Amphotericin B) [2, 8] | MIC in μg/ml (Amphotericin B) [3, 8] | MIC in μg/ml (Amphotericin B) [4, 8] | MIC in μg/ml (Amphotericin B) [5, 8] | MIC in μg/ml (Amphotericin B) [6, 8] | MIC in μg/ml (Amphotericin B) [7, 8] | MIC50 [1] | MIC50 [2] | MIC50 [3] | MIC50 [4] | MIC50 [5] | MIC50 [6] | MIC50 [7] | SMILES
– | – | – | – | – | – | – | 0.12 µg/mL | 0.06 µg/mL | 0.25 µg/mL | 0.12 µg/mL | 0.12 µg/mL | 0.25 µg/mL | 1 µg/mL | CCCCCCc1cc2c(=O)n(C[C@](O)(Cn3cncn3)c3ccc(F)cc3F)cnc2s1 [Formula 1b-01, (S)-3-[2-(2,4-Difluorophenyl)-2-hydroxy-3-[1,2,4]triazol-1-yl-propyl]-6-(n-hexyl)-thieno[2,3-d]pyrimidin-4(3H)-one]
– | – | – | – | – | – | – | 0.25 µg/mL | 0.12 µg/mL | 0.5 µg/mL | 0.5 µg/mL | 0.25 µg/mL | 1 µg/mL | 1 µg/mL | CCCCCCCc1cc2c(=O)n(C[C@](O)(Cn3cncn3)c3ccc(F)cc3F)cnc2s1 [Formula 1b-03, (S)-3-[2-(2,4-Difluorophenyl)-2-hydroxy-3-[1,2,4]triazol-1-yl-propyl]-6-n-heptyl-thieno[2,3-d]pyrimidin-4(3H)-one]

Further lines, the compound ahead of its results:

SMILES | MIC in μg/ml (Amphotericin B) [1, 8] | MIC in μg/ml (Amphotericin B) [2, 8] | MIC in μg/ml (Amphotericin B) [3, 8] | MIC in μg/ml (Amphotericin B) [4, 8] | MIC in μg/ml (Amphotericin B) [5, 8] | MIC in μg/ml (Amphotericin B) [6, 8] | MIC in μg/ml (Amphotericin B) [7, 8] | MIC50 [1] | MIC50 [2] | MIC50 [3] | MIC50 [4] | MIC50 [5] | MIC50 [6] | MIC50 [7]
C[C@@H]1[C@H](O)[C@@H](C)/C=C/C=C/C=C/C=C/C=C/C=C/C=C/[C@H](O[C@@H]2O[C@H](C)[C@@H](O)[C@H](N)[C@@H]2O)C[C@@H]2O[C@](O)(C[C@@H](O)C[C@@H](O)[C@H](O)CC[C@@H](O)C[C@@H](O)CC(=O)O[C@H]1C)C[C@H](O)[C@H]2C(=O)O [AMB, Amphotericin-B, reference compound] | 0.5 µg/mL (≈ 0.541 µM) | 0.25 µg/mL (≈ 0.271 µM) | 0.5 µg/mL (≈ 0.541 µM) | 0.5 µg/mL (≈ 0.541 µM) | 0.25 µg/mL (≈ 0.271 µM) | 0.5 µg/mL (≈ 0.541 µM) | 0.5 µg/mL (≈ 0.541 µM) | – | – | – | – | – | – | –
OC(Cn1cncn1)(Cn1cncn1)c1ccc(F)cc1F [FLU, Fluconazole] | – | – | – | – | – | – | – | 0.5 µg/mL (≈ 1.63 µM) | 1 µg/mL (≈ 3.27 µM) | 0.5 µg/mL (≈ 1.63 µM) | 1 µg/mL (≈ 3.27 µM) | 4 µg/mL (≈ 13.1 µM) | 2 µg/mL (≈ 6.53 µM) | 64 µg/mL (≈ 209 µM)
CCCCCc1cc2c(=O)n(C[C@@](O)(Cn3cncn3)c3ccc(F)cc3F)cnc2s1 [Formula 1a-02, (R)-3-[2-(2,4-difluorophenyl)-2-hydroxy-3-(1H-1,2,4-triazol-1-yl)propyl]-6-n-pentylthieno[2,3-d]pyrimidin-4(3H)-one] | – | – | – | – | – | – | – | 4 µg/mL | 4 µg/mL | 8 µg/mL | 8 µg/mL | 4 µg/mL | 16 µg/mL | > 16 µg/mL
CCCCCc1cc2c(=O)n(C[C@](O)(Cn3cncn3)c3ccc(F)cc3F)cnc2s1 [Formula 1b-02, (S)-3-[2-(2,4-difluorophenyl)-2-hydroxy-3-(1H-1,2,4-triazol-1-yl)propyl]-6-n-pentylthieno[2,3-d]pyrimidin-4(3H)-one] | – | – | – | – | – | – | – | 0.03 µg/mL | 0.03 µg/mL | 0.12 µg/mL | 0.12 µg/mL | 0.06 µg/mL | 0.06 µg/mL | 1 µg/mL
CCCc1cc2c(=O)n(C[C@](O)(Cn3cncn3)c3ccc(F)cc3F)cnc2s1 [Formula 1b-04, (S)-3-[2-(2,4-Difluorophenyl)-2-hydroxy-3-[1,2,4]triazol-1-yl-propyl]-6-(n-propyl)-thieno[2,3-d]pyrimidin-4(3H)-one] | – | – | – | – | – | – | – | 0.03 µg/mL | 0.03 µg/mL | 0.03 µg/mL | 0.06 µg/mL | 0.03 µg/mL | 0.06 µg/mL | 1 µg/mL

Reference: US9181269B2, “Enantiomers of fluconazole analogues containing thieno-[2,-3-D]pyrimidin-4(3H)-one moiety as antifungal agents” (FDC Limited, priority 2011, dated 2015)
